Laboratory results from PubChem BioAssay AID2060618 (Molecular Pharmacology Branch, DTP, NCI, 2025).
Where “and” joins values, the source holds several entries; their conditions need not be identical. Equal values may be shown once.

Tested on: 454973-116-R2-J3-PDC spheroids, percent test/control viability
Assay: Anticancer human tumor 454973-116-R2-J3-PDC patient-derived pancreatic carcinoma cell line growth inhibition [CLK]
Settings: spheroids with HUVEC and MSC; for viability, T/C: stronger effect = lower value
Method in brief: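 Multi-cell-type spheroids combined patient-derived tumor cells with HUVEC endothelial cells and human mesenchymal stem cells. Paired agents were dosed in half-log steps down from about clinical Cmax, or from 10 microM where Cmax was unknown.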

[1] = curve of first compound, second compound 0.0316 µM
[2] = curve of first compound, second compound 0.1 µM
[3] = curve of first compound, second compound 0.316 µM
[4] = curve of first compound, second compound 1 µM
[5] = curve of first compound, second compound 3.16 µM
[6] = curve of first compound, second compound 10 µM
[7] = second compound 0.0316 µM, first compound 0.0316 µM
[8] = second compound 0.0316 µM, first compound 0.1 µM
[9] = second compound 0.0316 µM, first compound 0.316 µM
[10] = second compound 0.0316 µM, first compound 1 µM
[11] = second compound 0.0316 µM, first compound 3.16 µM
[12] = second compound 0.0316 µM, first compound 10 µM
[13] = second compound 0.1 µM, first compound 0.0316 µM
[14] = second compound 0.1 µM, first compound 0.1 µM
[15] = second compound 0.1 µM, first compound 0.316 µM
[16] = second compound 0.1 µM, first compound 1 µM
[17] = second compound 0.1 µM, first compound 3.16 µM
[18] = second compound 0.1 µM, first compound 10 µM
[19] = second compound 0.316 µM, first compound 0.0316 µM
[20] = second compound 0.316 µM, first compound 0.1 µM
[21] = second compound 0.316 µM, first compound 0.316 µM
[22] = second compound 0.316 µM, first compound 1 µM
[23] = second compound 0.316 µM, first compound 3.16 µM
[24] = second compound 0.316 µM, first compound 10 µM
[25] = second compound 1 µM, first compound 0.0316 µM
[26] = second compound 1 µM, first compound 0.1 µM
[27] = second compound 1 µM, first compound 0.316 µM
[28] = second compound 1 µM, first compound 1 µM
[29] = second compound 1 µM, first compound 3.16 µM
[30] = second compound 1 µM, first compound 10 µM
[31] = second compound 3.16 µM, first compound 0.0316 µM
[32] = second compound 3.16 µM, first compound 0.1 µM
[33] = second compound 3.16 µM, first compound 0.316 µM
[34] = second compound 3.16 µM, first compound 1 µM
[35] = second compound 3.16 µM, first compound 3.16 µM
[36] = second compound 3.16 µM, first compound 10 µM
[37] = second compound 10 µM, first compound 0.0316 µM
[38] = second compound 10 µM, first compound 0.1 µM
[39] = second compound 10 µM, first compound 0.316 µM
[40] = second compound 10 µM, first compound 1 µM
[41] = second compound 10 µM, first compound 3.16 µM
[42] = second compound 10 µM, first compound 10 µM
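Note: spheroids exposed to compounds for 7 days before readout.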

C=CC(=O)Nc1cc(Nc2nccc(-c3cn(C)c4ccccc34)n2)c(OC)cc1N(C)CCN(C)C + CN1CCN(c2cc(C(=O)Nc3cc4cc(-c5cnn(C)c5)ccc4cn3)ccn2)CC1
IC50 [1]: > 300 nM | IC50 [2]: > 300 nM | IC50 [3]: < 0.949 nM | IC50 [4]: < 0.949 nM | IC50 [5]: < 0.949 nM | IC50 [6]: < 0.949 nM | viability, T/C (second compound 0.0316 µM, first compound 0.000949 µM): 95.6% | viability, T/C (second compound 0.0316 µM, first compound 0.003 µM): 107% | viability, T/C (second compound 0.0316 µM, first compound 0.00949 µM): 96.8% | viability, T/C (second compound 0.0316 µM, first compound 0.03 µM): 104% | viability, T/C (second compound 0.0316 µM, first compound 0.0949 µM): 102% | viability, T/C (second compound 0.0316 µM, first compound 0.3 µM): 98.3% | viability, T/C (second compound 0.1 µM, first compound 0.000949 µM): 72.8% | viability, T/C (second compound 0.1 µM, first compound 0.003 µM): 76.6% | viability, T/C (second compound 0.1 µM, first compound 0.00949 µM): 77.1% | viability, T/C (second compound 0.1 µM, first compound 0.03 µM): 77.1% | viability, T/C (second compound 0.1 µM, first compound 0.0949 µM): 79% | viability, T/C (second compound 0.1 µM, first compound 0.3 µM): 72% | viability, T/C (second compound 0.316 µM, first compound 0.000949 µM): 1.85% | viability, T/C (second compound 0.316 µM, first compound 0.003 µM): 4.04% | viability, T/C (second compound 0.316 µM, first compound 0.00949 µM): 1.97% | viability, T/C (second compound 0.316 µM, first compound 0.03 µM): 3.67% | viability, T/C (second compound 0.316 µM, first compound 0.0949 µM): 1.83% | viability, T/C (second compound 0.316 µM, first compound 0.3 µM): 1.5% | viability, T/C (second compound 1 µM, first compound 0.000949 µM): 0.13% | viability, T/C (second compound 1 µM, first compound 0.003 µM): 0.14% | viability, T/C (second compound 1 µM, first compound 0.00949 µM): 0.14% | viability, T/C (second compound 1 µM, first compound 0.03 µM): 0.1% | viability, T/C (second compound 1 µM, first compound 0.0949 µM): 0.12% | viability, T/C (second compound 1 µM, first compound 0.3 µM): 0.12% | viability, T/C (second compound 3.16 µM, first compound 0.000949 µM): 0.15% | viability, T/C (second compound 3.16 µM, first compound 0.003 µM): 0.21% | viability, T/C (second compound 3.16 µM, first compound 0.00949 µM): 0.2% | viability, T/C (second compound 3.16 µM, first compound 0.03 µM): 0.2% | viability, T/C (second compound 3.16 µM, first compound 0.0949 µM): 1.74% | viability, T/C (second compound 3.16 µM, first compound 0.3 µM): 0.35% | viability, T/C (second compound 10 µM, first compound 0.000949 µM): 0.31% | viability, T/C (second compound 10 µM, first compound 0.003 µM): 0.26% | viability, T/C (second compound 10 µM, first compound 0.00949 µM): 0.21% | viability, T/C (second compound 10 µM, first compound 0.03 µM): 0.29% | viability, T/C (second compound 10 µM, first compound 0.0949 µM): 2.12% | viability, T/C (second compound 10 µM, first compound 0.3 µM): 2.07%

CC(C)CC(NC(=O)C(Cc1ccccc1)NC(=O)c1cnccn1)B(O)O (stereo not drawn)
viability, T/C (compound 0.000949 µM): 106% and 104% | viability, T/C (compound 0.003 µM): 47.9% and 34.1% | viability, T/C (compound 0.00949 µM): 0.32% and 0.38% | viability, T/C (compound 0.03 µM): 0.21% and 1.51% | viability, T/C (compound 0.0949 µM): 0.12% and 2.95% | viability, T/C (compound 0.3 µM): 0.11% and 1.42% | IC50 (curve of compound): 2.88 nM and 2.31 nM

Nc1ccccc1NC(=O)c1ccc(CNC(=O)OCc2cccnc2)cc1 + CN1CCN(c2cc(C(=O)Nc3cc4cc(-c5cnn(C)c5)ccc4cn3)ccn2)CC1
IC50 [1]: 2100 nM | IC50 [2]: 1140 nM | IC50 [3]: < 31.6 nM | IC50 [4]: < 31.6 nM | IC50 [5]: < 31.6 nM | IC50 [6]: < 31.6 nM | viability, T/C [7]: 95.7% | viability, T/C [8]: 92.8% | viability, T/C [9]: 89.9% | viability, T/C [10]: 74.2% | viability, T/C [11]: 36.7% | viability, T/C [12]: 10.9% | viability, T/C [13]: 73.5% | viability, T/C [14]: 76.7% | viability, T/C [15]: 60.5% | viability, T/C [16]: 57.6% | viability, T/C [17]: 24.1% | viability, T/C [18]: 2.49% | viability, T/C [19]: 1.31% | viability, T/C [20]: 1.59% | viability, T/C [21]: 0.45% | viability, T/C [22]: 2.31% | viability, T/C [23]: 0.06% | viability, T/C [24]: 0.18% | viability, T/C [25]: 0.11% | viability, T/C [26]: 0.84% | viability, T/C [27]: 0.11% | viability, T/C [28]: 0.08% | viability, T/C [29]: 0.05% | viability, T/C [30]: 0.07% | viability, T/C [31]: 0.13% | viability, T/C [32]: 0.33% | viability, T/C [33]: 0.2% | viability, T/C [34]: 0.11% | viability, T/C [35]: 0.1% | viability, T/C [36]: 0.77% | viability, T/C [37]: 0.13% | viability, T/C [38]: 0.68% | viability, T/C [39]: 0.22% | viability, T/C [40]: 0.29% | viability, T/C [41]: 0.22% | viability, T/C [42]: 0.18%

CC1(C)CCC(CN2CCN(c3ccc(C(=O)NS(=O)(=O)c4ccc(NCC5CCOCC5)c([N+](=O)[O-])c4)c(Oc4cnc5[nH]ccc5c4)c3)CC2)=C(c2ccc(Cl)cc2)C1 + CN1CCN(c2cc(C(=O)Nc3cc4cc(-c5cnn(C)c5)ccc4cn3)ccn2)CC1
IC50 [1]: 7120 nM | IC50 [2]: 5230 nM | IC50 [3]: < 31.6 nM | IC50 [4]: < 31.6 nM | IC50 [5]: < 31.6 nM | IC50 [6]: < 31.6 nM | viability, T/C [7]: 99.1% | viability, T/C [8]: 93.8% | viability, T/C [9]: 96.2% | viability, T/C [10]: 110% | viability, T/C [11]: 105% | viability, T/C [12]: 28.6% | viability, T/C [13]: 80% | viability, T/C [14]: 74.3% | viability, T/C [15]: 69.3% | viability, T/C [16]: 84% | viability, T/C [17]: 72.7% | viability, T/C [18]: 20.2% | viability, T/C [19]: 1.7% | viability, T/C [20]: 1.6% | viability, T/C [21]: 2.41% | viability, T/C [22]: 3.39% | viability, T/C [23]: 0.47% | viability, T/C [24]: 2.29% | viability, T/C [25]: 0.12% | viability, T/C [26]: 0.14% | viability, T/C [27]: 0.18% | viability, T/C [28]: 0.14% | viability, T/C [29]: 0.16% | viability, T/C [30]: 0.4% | viability, T/C [31]: 0.18% | viability, T/C [32]: 0.15% | viability, T/C [33]: 0.18% | viability, T/C [34]: 0.24% | viability, T/C [35]: 0.61% | viability, T/C [36]: 0.7% | viability, T/C [37]: 0.14% | viability, T/C [38]: 0.13% | viability, T/C [39]: 0.21% | viability, T/C [40]: 0.2% | viability, T/C [41]: 0.15% | viability, T/C [42]: 0.17%
